Assay results as given in patent publication US10065973B2, “Substituted aminothiazolopyrimidinedione for the treatment and prophylaxis of virus infection” (Hoffmann-La Roche Inc., priority 2016, dated 2018).

Tested on: human hepatocytes
Test: Metabolic conversion of prodrugs to active form in human hepatocytes
Type: in vitro ADME
Conditions: active metabolites Example 10-A and penciclovir, respectively
From the text: Metabolism of Prodrugs: Compounds of Formula (II) A study was undertaken to evaluate the metabolic conversion of prodrugs, compounds of formula (II) or (IIa), to compounds of formula (I) or (Ia) of the present invention. The produgs, compounds of formula (II) or (IIa), can be metabolized to the active compound of formula (I) or (Ia) and other compounds of the invention in the body if they are served as prodrugs. Hepatocytes are often used to assess the degree of metabolic conversion of prodrugs in the body of animal or human. A study was undertaken to evaluate the metabolic conversion of prodrug Example 21, Example 22, Example 23, Example 24, Example 25 and Example 26, to the corresponding active form, Example 10-A, in the presence of human hepatocytes. The formation of active form, Example 10-A, was monitored in the study. For comparison, the metabolic conversion of famciclovir to penciclovir was also assessed. Cryopreserved hepatocytes plating medium (Cat.#: PY-HMD-03) was purchased from RILD Research Institute for Liver Diseases (Shanghai) Co. Ltd. Cryopreserved human hepatocyte (Cat.#: X008005, Lot#:VRR) was purchased from BioreclamationIVT (Baltimore, Md.). The stock hepatocyte suspension was prepared from cryopreserved hepatocytes in plating medium at the concentration of 1.8×10^6 cells/mL. Compounds were dissolved in DMSO to make 10 mM stock solutions. 10 μL of the stock solution was diluted to 990 μL plating medium to get a 100 μM working solution. Reaction suspensions were prepared in 24-well cell culture plate by mixing 200 μL of hepatocytes suspension (human) and 200 μL of working solution. The final incubation contained 0.9×10^6 cells/mL and 50 μM compound. The above mixtures were incubated at 37° C. in a humidified 5% CO2 atmosphere, with a 900 rpm shaking. After 180 min of incubation, 200 μL of the incubation mixture was transferred to 1.5 mL tube and quenched with 400 μL stop solution (ice-cold acetonitrile with 0.2 μM Tolbutamide as internal standard). The samples were centrifuged at 14000 rpm for 10 minutes and the resultant supernatants were subjected to LC-MS/MS analysis. The calibration curves were prepared in the following way. To a 200 μL of cell suspension (cell density of 1.8 million cells/mL), 198 μL of hepatocyte plating medium and 2 μL of the appropriate concentration of the compound in DMSO were added. Samples were mixed thoroughly and 200 μL of the mixture was transferred to 400 μL of the stop solution (see above). The standard curve range is from 1 μM to 25 μM. The compounds were quantified on an API5500 […] instrument in the ESI-Positive MRM mode.

Row | Compound | metabolic conversion to active metabolite in human hepatocytes
1 | CC[C@H](O)[C@@H]1C[C@@H]([C@@H](C)OC(C)=O)[C@H](n2c(=O)sc3cnc(N)nc32)O1 [Example 21, [(1R)-1-[(2R,3S,5S)-2-(5-Amino-2-oxo-thiazolo[4,5-d]pyrimidin-3-yl)-5-[(1S)-1-hydroxypropyl]tetrahydrofuran-3-yl]ethyl] acetate] | metabolized to yield the corresponding active metabolites
2 | CC[C@H](OC(C)=O)[C@@H]1C[C@@H]([C@@H](C)O)[C@H](n2c(=O)sc3cnc(N)nc32)O1 [Example 22, [(1S)-1-[(2S,4S,5R)-5-(5-Amino-2-oxo-thiazolo[4,5-d]pyrimidin-3-yl)-4-[(1R)-1-hydroxyethyl]tetrahydrofuran-2-yl]propyl] acetate] | metabolized to yield the corresponding active metabolites
3 | CC[C@H](O)[C@@H]1C[C@@H]([C@@H](C)OC(=O)C(C)C)[C@H](n2c(=O)sc3cnc(N)nc32)O1 [Example 23, [(1R)-1-[(2R,3S,5S)-2-(5-Amino-2-oxo-thiazolo[4,5-d]pyrimidin-3-yl)-5-[(1S)-1-hydroxypropyl]tetrahydrofuran-3-yl]ethyl] 2-methylpropanoate] | metabolized to yield the corresponding active metabolites
4 | CC[C@H](O)[C@@H]1C[C@@H]([C@@H](C)OC(=O)C(C)(C)C)[C@H](n2c(=O)sc3cnc(N)nc32)O1 [Example 24, [(1R)-1-[(2R,3S,5S)-2-(5-Amino-2-oxo-thiazolo[4,5-d]pyrimidin-3-yl)-5-[(1S)-1-hydroxypropyl]tetrahydrofuran-3-yl]ethyl] 2,2-dimethylpropanoate] | metabolized to yield the corresponding active metabolites
5 | CC[C@H](O)[C@@H]1C[C@@H]([C@@H](C)OC(=O)CC(C)C)[C@H](n2c(=O)sc3cnc(N)nc32)O1 [Example 25, [(1R)-1-[(2R,3S,5S)-2-(5-Amino-2-oxo-thiazolo[4,5-d]pyrimidin-3-yl)-5-[(1S)-1-hydroxypropyl]tetrahydrofuran-3-yl]ethyl] 3-methylbutanoate] | metabolized to yield the corresponding active metabolites
6 | CCOC(=O)O[C@H](C)[C@@H]1C[C@@H]([C@@H](O)CC)O[C@H]1n1c(=O)sc2cnc(N)nc21 [Example 26, [(1R)-1-[(2R,3S,5S)-2-(5-Amino-2-oxo-thiazolo[4,5-d]pyrimidin-3-yl)-5-[(1S)-1-hydroxypropyl]tetrahydrofuran-3-yl]ethyl] ethyl carbonate] | metabolized to yield the corresponding active metabolites
7 | CC(=O)OCC(CCn1cnc2cnc(N)nc21)COC(C)=O [Famciclovir, famciclovir, reference compound] | metabolized to yield the corresponding active metabolites
